From US9352015B2, “Antimicrobial peptides” (priority 2009, dated 2016)
In brackets after ≈: the same amount, converted by molar mass. Several values for one entry are separate records, joined by “and”; a condition that tells them apart may be missing. Identical values can stand only once. Like-named read-outs stand apart in the source and are kept apart here.

Experiments:
Pseudomonas aeruginosa = conditions: for MIC PAO 1: 37° C., 24 h, strain PAO1; for MIC GM (geometric mean of the MIC values): six P. aeruginosa strains; for MIC CP 204: strain CP204; for MIC M 2: strain M2; for MIC PA 14: strain PA14; for MIC PAK: strain PAK; for MIC WR 5: strain WR5
[1] = Hemolytic activity against human erythrocytes (HC50 / MHC, microtiter dilution); type: cell-based; conditions: human, 1% human erythrocytes, pH 7.4
Method: Hemoglobin release was determined spectrophotometrically at 570 nm. The hemolytic activity was determined as the peptide concentration that caused 50% hemolysis of erythrocytes after 18 h (HC50). […] HC50 was determined by a plot of peptide concentration versus percent lysis.

Acinetobacter baumannii = type: cell-based
Method: (§1) Minimal inhibitory concentrations (MICs) are determined using a standard microtiter dilution method, with 3 sets of determinations, in LB (Luria-Bertani) no-salt medium (10 g of tryptone and 5 g of yeast extract per liter). In some cases, Mueller Hinton (MH) medium or Brain Heart Infusion (BHI) medium is used.
(§2) Briefly, cells were grown overnight at 37° C. in LB and diluted in the same medium. Serial dilutions of the peptides are added to the microtiter plates in a volume of 100 μl followed by 10 μl of bacteria to give a final inoculum of 5×10^5 colony-forming units/ml. Plates are incubated at 37° C. for 24 hours and MICs determined as the lowest peptide concentration that inhibited growth. Alternatively, minimal inhibitory concentrations are determined using a standard microtiter dilution method in a Mueller-Hinton (MH) medium. Briefly, cells are grown overnight at 37° C. in MH broth and diluted in the same medium. In some cases, serial dilutions of the peptides are added to the microtiter plates in a volume of 100 μl followed by 10 μl of bacteria to give a final inoculum of 1×10^5 colony-forming units/ml. Plates are incubated at 37° C. for 24 hours and MICs are determined as the lowest peptide concentration that inhibited growth.
The biological activities of these six peptide analogs was determined against 11 clinical isolated of Acinetobacter baumannii (Table 9). Please note that the activities are reported in micromolar rather than microgram/ml. This allows a direct comparison on a molar basis with the effectiveness of molecules of different molecular weights whether peptides disclosed herein or antibiotics which in general are smaller in molecular mass. […] These are the highest antimicrobial activities observed in studies of antimicrobial peptides derived by modifying the peptide sequence of SEQ ID NO:24 (D1). D22 has the best hemolytic activity of the six analogs (D17-D22) and a therapeutic index of […] compared to […] for D1 (Table 9). D22 has no apparent advantage over D1 as determined in these experiments.

[2] = RP-HPLC temperature profiling (peptide self-association parameter PA); type: physicochemical; conditions: RP-HPLC temperature profiling 5-80° C., pH 2, relative to control peptide C
Method: Temperature profiling analyses were performed on the same column in 3° C. increments, from 5° C. to 80° C., using a linear AB gradient of 0.5% acetonitrile/min, as described previously (30, 53, 92, 93).
Peptide self-association (i.e., the ability to oligomerize/dimerize) in aqueous solution is a very important parameter for antimicrobial activity (53, 92, 93). Without wishing to be bound by any particular theory, the present inventors postulated that monomeric random-coil antimicrobial peptides are best suited to pass through the capsule and cell wall of microorganisms prior to penetration into the cytoplasmic membrane, induction of α-helical structure and disruption of membrane structure to kill target cells (93). Thus, if the self-association ability of a peptide in aqueous media is too strong (e.g., forming stable folded dimers through interaction of their non-polar faces) this could decrease the ability of the peptide to dissociate to monomer, in addition oligomerization of the peptide can prevent it from effectively passing through the capsule and cell wall to reach the membrane. The ability of the peptides in the present study to self-associate was determined by the technique of RP-HPLC temperature profiling at pH 2 (29, 30, 38). The reason pH 2 is used to determine self-association of cationic AMPs is that highly positively charged peptides are frequently not eluted from reversed-phase columns at pH 7 due to non-specific binding to negatively charged silanols on the column matrix. This is not a problem at pH 2 since the silanols are protonated (i.e., neutral) and non-specific electrostatic interactions are eliminated. At pH 2, the interactions between the peptide and the reversed-phase matrix involve ideal retention behavior, i.e., only hydrophobic interactions between the preferred binding domain (nonpolar face) of the amphipathic molecule and the hydrophobic surface of the column matrix are present (39). […] Control peptide C is a monomeric random coil peptide in both aqueous and hydrophobic media; thus, its linear decrease in peptide retention behavior with increasing temperature within the range of 5° C. to 80° C. represents only the general effects of temperature due to greater solute diffusivity and enhanced mass transfer between the stationary and mobile phase at higher temperatures (55). To allow for these general temperature effects, the data for the control peptide was subtracted from each temperature profile as shown in FIG. 2B. Thus, the peptide self-association parameter, PA, represents the maximum change in peptide retention time relative to the random coil peptide C. Note that the higher the PA value, the greater the self-association.

[3] = system: Methicillin Resistant Staphylococcus aureus (MRSA) and Staphylococcus aureus; type: cell-based
Method: as §1, §2
Identification of Antimicrobial Peptides for Gram-positive Bacteria. In a manner similar to testing against gram-negative bacteria, experiments were carried out to screen the 14 peptides used to identify antimicrobial peptides with significant activity against A. baumanii shown above against 20 different clinical isolates of Methicillin Resistant Staphylococcus aureus (MRSA) and Staphylococcus aureus.

[4] = RP-HPLC retention as measure of overall peptide hydrophobicity; type: physicochemical; conditions: pH 2, room temperature
Method: Crude and purified peptides were analyzed on an Agilent 1100 series liquid chromatograph (Little Falls, Del.). Runs were performed on a Zorbax 300 SB-C8 column (150×2.1 mm I.D.; 5 μm particle size, 300 Å pore size) from Agilent Technologies using linear AB gradient (1% acetonitrile/min) and a flow rate of 0.25 ml/min, where eluant A was 0.2% aqueous TFA, pH 2 and eluant B was 0.2% TFA in acetonitrile.

CC[C@@H](C)[C@@H](NC(=O)[C@@H](C)NC(=O)[C@@H](CCCCN)NC(=O)[C@@H](CC(C)C)NC(=O)[C@@H](CC(C)C)NC(=O)[C@H](NC(=O)[C@@H](CCCCN)NC(=O)[C@@H](CC(C)C)NC(=O)[C@@H](C)NC(=O)[C@@H](CCCCN)NC(=O)[C@@H](CCCCN)NC(=O)[C@@H](CCCCN)NC(=O)[C@@H](C)NC(=O)[C@@H](CCCCN)NC(=O)[C@@H](CO)NC(=O)[C@@H](Cc1ccccc1)NC(=O)[C@H](NC(=O)[C@@H](CCCCN)NC(=O)[C@@H](CC(C)C)NC(=O)[C@@H](Cc1ccccc1)NC(=O)[C@@H](CO)NC(=O)[C@@H](CO)NC(=O)[C@@H](Cc1c[nH]c2ccccc12)NC(=O)[C@@H](CO)NC(C)=O)[C@H](C)O)[C@H](C)O)C(=O)N[C@H](CO)C(=O)N[C@H](CO)C(N)=O [Peptide D19, Ac-SWSSFLKTFSKAKKKALKTLLKAISS-amide]
MIC PAO 1 (Pseudomonas aeruginosa; Brain Heart Infusion medium): 7.8 µg/mL (≈ 2.65 µM)
MIC GM (geometric mean of the MIC values) (Pseudomonas aeruginosa; Brain Heart Infusion medium): 9.8 µg/mL
MIC CP 204 (Pseudomonas aeruginosa; Brain Heart Infusion medium): 15.6 µg/mL (≈ 5.31 µM)
MIC M 2 (Pseudomonas aeruginosa; Brain Heart Infusion medium): 7.8 µg/mL (≈ 2.65 µM)
MIC PA 14 (Pseudomonas aeruginosa; Brain Heart Infusion medium): 3.9 µg/mL (≈ 1.33 µM)
MIC PAK (Pseudomonas aeruginosa; Brain Heart Infusion medium): 15.6 µg/mL (≈ 5.31 µM)
MIC WR 5 (Pseudomonas aeruginosa; Brain Heart Infusion medium): 15.6 µg/mL (≈ 5.31 µM)
MIC PAO 1 (Pseudomonas aeruginosa; Mueller Hinton medium): 3.9 µg/mL (≈ 1.33 µM)
MIC GM (geometric mean of the MIC values) (Pseudomonas aeruginosa; Mueller Hinton medium): 7.8 µg/mL
MIC CP 204 (Pseudomonas aeruginosa; Mueller Hinton medium): 15.6 µg/mL (≈ 5.31 µM)
MIC M 2 (Pseudomonas aeruginosa; Mueller Hinton medium): 15.6 µg/mL (≈ 5.31 µM)
MIC PA 14 (Pseudomonas aeruginosa; Mueller Hinton medium): 3.9 µg/mL (≈ 1.33 µM)
MIC PAK (Pseudomonas aeruginosa; Mueller Hinton medium): 3.9 µg/mL (≈ 1.33 µM)
MIC WR 5 (Pseudomonas aeruginosa; Mueller Hinton medium): 15.6 µg/mL (≈ 5.31 µM)
HC50 at 18 h [1]: 36 µg/mL and 12.2 µM
MIC GM (geometric mean) (Acinetobacter baumannii): 0.8 µM (≈ 2.35 µg/mL)
PA (dimerization / self-association parameter) [2]: 7.07
MIC GM (geometric mean) [3]: 5.3 µM (≈ 15.6 µg/mL)
Hydrophobicity (retention time in RP-HPLC) [4]: 97.94 min

CC[C@@H](C)[C@@H](NC(=O)[C@@H](C)NC(=O)[C@@H](CCCCN)NC(=O)[C@@H](CC(C)C)NC(=O)[C@@H](CC(C)C)NC(=O)[C@H](NC(=O)[C@@H](CCCCN)NC(=O)[C@@H](CC(C)C)NC(=O)[C@@H](C)NC(=O)[C@@H](CCCCN)NC(=O)[C@@H](CCCCN)NC(=O)[C@@H](CCCCN)NC(=O)[C@@H](C)NC(=O)[C@@H](CCCCN)NC(=O)[C@@H](CO)NC(=O)[C@@H](Cc1ccccc1)NC(=O)[C@H](NC(=O)[C@@H](CCCCN)NC(=O)[C@@H](CC(C)C)NC(=O)[C@@H](Cc1ccccc1)NC(=O)[C@@H](CO)NC(=O)[C@@H](CCCCN)NC(=O)[C@@H](Cc1c[nH]c2ccccc12)NC(=O)[C@@H](CO)NC(C)=O)[C@H](C)O)[C@H](C)O)C(=O)N[C@H](CO)C(=O)N[C@H](CO)C(N)=O [Peptide D20, Ac-SWKSFLKTFSKAKKKALKTLLKAISS-amide]
MIC PAO 1 (Pseudomonas aeruginosa; Brain Heart Infusion medium): 7.8 µg/mL (≈ 2.62 µM)
MIC GM (geometric mean of the MIC values) (Pseudomonas aeruginosa; Brain Heart Infusion medium): 9.8 µg/mL
MIC CP 204 (Pseudomonas aeruginosa; Brain Heart Infusion medium): 15.6 µg/mL (≈ 5.23 µM)
MIC M 2 (Pseudomonas aeruginosa; Brain Heart Infusion medium): 7.8 µg/mL (≈ 2.62 µM)
MIC PA 14 (Pseudomonas aeruginosa; Brain Heart Infusion medium): 7.8 µg/mL (≈ 2.62 µM)
MIC PAK (Pseudomonas aeruginosa; Brain Heart Infusion medium): 15.6 µg/mL (≈ 5.23 µM)
MIC WR 5 (Pseudomonas aeruginosa; Brain Heart Infusion medium): 7.8 µg/mL (≈ 2.62 µM)
MIC PAO 1 (Pseudomonas aeruginosa; Mueller Hinton medium): 7.8 µg/mL (≈ 2.62 µM)
MIC GM (geometric mean of the MIC values) (Pseudomonas aeruginosa; Mueller Hinton medium): 12.4 µg/mL
MIC CP 204 (Pseudomonas aeruginosa; Mueller Hinton medium): 31.3 µg/mL (≈ 10.5 µM)
MIC M 2 (Pseudomonas aeruginosa; Mueller Hinton medium): 15.6 µg/mL (≈ 5.23 µM)
MIC PA 14 (Pseudomonas aeruginosa; Mueller Hinton medium): 7.8 µg/mL (≈ 2.62 µM)
MIC PAK (Pseudomonas aeruginosa; Mueller Hinton medium): 7.8 µg/mL (≈ 2.62 µM)
MIC WR 5 (Pseudomonas aeruginosa; Mueller Hinton medium): 15.6 µg/mL (≈ 5.23 µM)
HC50 at 18 h [1]: 77 µg/mL and 25.8 µM
MIC GM (geometric mean) (Acinetobacter baumannii): 0.6 µM (≈ 1.79 µg/mL)
PA (dimerization / self-association parameter) [2]: 6.39
MIC GM (geometric mean) [3]: 6.0 µM (≈ 17.9 µg/mL)
Hydrophobicity (retention time in RP-HPLC) [4]: 95.90 min

CC[C@@H](C)[C@@H](NC(=O)[C@@H](C)NC(=O)[C@@H](CO)NC(=O)[C@@H](CC(C)C)NC(=O)[C@@H](CC(C)C)NC(=O)[C@H](NC(=O)[C@@H](CCCCN)NC(=O)[C@@H](CC(C)C)NC(=O)[C@@H](C)NC(=O)[C@@H](CCCCN)NC(=O)[C@@H](CCCCN)NC(=O)[C@@H](CCCCN)NC(=O)[C@@H](C)NC(=O)[C@@H](CCCCN)NC(=O)[C@@H](CO)NC(=O)[C@@H](Cc1ccccc1)NC(=O)[C@H](NC(=O)[C@@H](CCCCN)NC(=O)[C@@H](CC(C)C)NC(=O)[C@@H](Cc1ccccc1)NC(=O)[C@@H](CO)NC(=O)[C@@H](CO)NC(=O)[C@@H](Cc1c[nH]c2ccccc12)NC(=O)[C@@H](CO)NC(C)=O)[C@H](C)O)[C@H](C)O)C(=O)N[C@H](CO)C(=O)N[C@H](CO)C(N)=O [Peptide D18, Ac-SWSSFLKTFSKAKKKALKTLLSAISS-amide]
MIC PAO 1 (Pseudomonas aeruginosa; Brain Heart Infusion medium): 10.4 µg/mL (≈ 3.59 µM)
MIC GM (geometric mean of the MIC values) (Pseudomonas aeruginosa; Brain Heart Infusion medium): 14.7 µg/mL
MIC CP 204 (Pseudomonas aeruginosa; Brain Heart Infusion medium): 41.7 µg/mL (≈ 14.4 µM)
MIC M 2 (Pseudomonas aeruginosa; Brain Heart Infusion medium): 10.4 µg/mL (≈ 3.59 µM)
MIC PA 14 (Pseudomonas aeruginosa; Brain Heart Infusion medium): 10.4 µg/mL (≈ 3.59 µM)
MIC PAK (Pseudomonas aeruginosa; Brain Heart Infusion medium): 10.4 µg/mL (≈ 3.59 µM)
MIC WR 5 (Pseudomonas aeruginosa; Brain Heart Infusion medium): 20.8 µg/mL (≈ 7.17 µM)
MIC PAO 1 (Pseudomonas aeruginosa; Mueller Hinton medium): 7.8 µg/mL (≈ 2.69 µM)
MIC GM (geometric mean of the MIC values) (Pseudomonas aeruginosa; Mueller Hinton medium): 9.8 µg/mL
MIC CP 204 (Pseudomonas aeruginosa; Mueller Hinton medium): 15.6 µg/mL (≈ 5.38 µM)
MIC M 2 (Pseudomonas aeruginosa; Mueller Hinton medium): 7.8 µg/mL (≈ 2.69 µM)
MIC PA 14 (Pseudomonas aeruginosa; Mueller Hinton medium): 7.8 µg/mL (≈ 2.69 µM)
MIC PAK (Pseudomonas aeruginosa; Mueller Hinton medium): 7.8 µg/mL (≈ 2.69 µM)
MIC WR 5 (Pseudomonas aeruginosa; Mueller Hinton medium): 15.6 µg/mL (≈ 5.38 µM)
HC50 at 18 h [1]: 55 µg/mL and 19 µM
MIC GM (geometric mean) (Acinetobacter baumannii): 0.9 µM (≈ 2.61 µg/mL)
PA (dimerization / self-association parameter) [2]: 7.21
MIC GM (geometric mean) [3]: 17.1 µM (≈ 49.6 µg/mL)
Hydrophobicity (retention time in RP-HPLC) [4]: 97.87 min
